Laboratory results as given in EP4008330A1, “COMBINED INHIBITION OF AMINO ACID TRANSPORTERS FOR INHIBITING HUMAN PLASMACYTOID DENDRITIC CELL ACTIVITY DURING AUTOIMMUNITY” (Max-Planck-Gesellschaft zur Förderung der Wissenschaften …, priority 2020, dated 2022).

Experiments:
[1] = system: pDC; assay: Intracellular IFNα and TNFα production by CpG-A-stimulated isolated pDC (flow cytometry); type: cell-based, human
Excerpt: PBMC from buffy coats from healthy blood donors were isolated by density gradient centrifugation using SepMate tubes and Lymphoprep (both […] Technologies). pDC were negatively selected from PBMC using the plasmacytoid dendritic cell isolation kit II (Miltenyi Biotec). Buffy coats were kindly provided by the Institute for Transfusion Medicine and Gene Therapy, Medical Center - University of Freiburg (donor consent, anonymized). Skin samples of lupus patients were obtained through the biobank of the SFB829 (Z4 project) with informed consent from all the subjects and ethical approval obtained from the Ethics Committee at the University of Cologne (votes 12-163 and 19-1146). SLE PBMC were provided by ImmRheum biobank in Freiburg, a project that was approved by the local ethical committee (votes 507/16 and 624/14). All patients who provided blood to the biobank had provided written informed consent.
(§1) Cells were stimulated with 5 µM CpG-A ODN (ODN2216, InvivoGen) for times indicated.
The following fluorochrome-conjugated monoclonal antibodies were used for staining cell surface markers: IL-3Ra (CD123) (Miltenyi Biotec, clone AC145), HLA-DR (BD Bioscience, clone G46-6), CD116 (BD Bioscience, clone hGMCSFR-M1), CD4 (Biolegend, clone A161A1). […] Isolated pDC staining was performed in 0.5% BSA in PBS for 10 min at RT, dead cells were excluded with the LIVE/DEAD Fixable Near-IR or Aqua Dead Cell Stain Kits (Thermo scientific). Unspecific binding was blocked with FcR blocking reagent (Miltenyi). The following fluorochrome-conjugated Abs were used for intracellular staining: IFNα (Miltenyi, LT27:295), TNFα (BioLegend, clone Mab11), pS6(S235/236; CST, clone D57.2.2e), pSTAT5 (Y694; CST, clone C71E5). After surface staining, cells were fixed using Fixation/Permeabilization Kit (BD Bioscience) for 20 min at 4°C, and then additionally permeabilized in Perm/Wash solution for 30 min at 4°C, after which cells were incubated with antibodies against intracellular proteins, at previously determined antibody dilutions, for 30 min at RT. […] Cycloheximide (Sigma) at 100 µg/ml was used as a positive control for protein synthesis inhibition.

[2] = target: T1, System LAA transporters SLC7A5 and SLC3A2 (Homo sapiens, UniProt Q01650); assay: Kynurenine uptake by pDC (flow cytometry), System LAA transporter activity; type: cell-based
T1 construct: freshly isolated pDC from PBMC of healthy donors and SLE patients also expressed System LAA transporters SLC7A5 and SLC3A2; endogenous in cells; host or cells: Primary plasmacytoid dendritic cells isolated from PBMC of human donors
Protocol: (§2) Briefly, stained cells were incubated in HBSS (Gibco) with 200 µM kynurenine (Sigma) for 4 min at 37°C.
To assess whether IL-3-induced expression of SLC7A5 and SLC3A2 allowed the assembly of a functional System LAA transporter, we used a flow cytometry-based assay that measures the ability of cells to take up kynurenine, a naturally fluorescing molecule that is transported into cells via SLC7A5; this can be used as a proxy measurement of large neutral amino acid (LNAA) uptake. […] Of interest, freshly isolated pDC from PBMC of healthy donors and SLE patients also expressed System LAA transporters SLC7A5 and SLC3A2 (Figure 5D) and furthermore pDC from healthy donors had the ability to take up kynurenine immediately ex vivo, a process that was blocked by BCH (Figure 5E).

[3] = system: pDC; assay: De novo protein synthesis in pDC, incorporation of puromycin analogue (OPP); type: cell-based, human; conditions: pDC in IL-3, CpG-A for 10 h and inhibitor
[4] = system: pDC; assay: Lactate levels in pDC culture medium (Cedex Bio Analyzer); type: cell-based, human; conditions: pDC in IL-3, CpG-A and inhibitor for 10 h
Protocol: as §1
Glucose and lactate were measured in cell culture supernatants using the Cedex Bio Analyzer (Roche) and data presented as mmol/L.

[5] = system: pDC; assay: Live cells / cell death of isolated pDC (LIVE/DEAD stain); type: cell-based
Protocol: as §1
(§3) Isolated pDC staining was performed in 0.5% BSA in PBS for 10 min at RT, dead cells were excluded with the LIVE/DEAD Fixable Near-IR or Aqua Dead Cell Stain Kits (Thermo scientific). Unspecific binding was blocked with FcR blocking reagent (Miltenyi). The following fluorochrome-conjugated Abs were used for intracellular staining: IFNα (Miltenyi, LT27:295), TNFα (BioLegend, clone Mab11), pS6(S235/236; CST, clone D57.2.2e), pSTAT5 (Y694; CST, clone C71E5). After surface staining, cells were fixed using Fixation/Permeabilization Kit (BD Bioscience) for 20 min at 4°C, and then additionally permeabilized in Perm/Wash solution for 30 min at 4°C, after which cells were incubated with antibodies against intracellular proteins, at previously determined antibody dilutions, for 30 min at RT. […] Cycloheximide (Sigma) at 100 µg/ml was used as a positive control for protein synthesis inhibition.

[6] = system: pDC; assay: Combined kynurenine uptake and pS6 (S235/236) in pDC (double positive cells); type: cell-based, human
Excerpt: To confirm that functional System LAA transport is a prerequisite for mTORC1 activation in response to CpG-A, the effects of IL-3 and CpG-A were examined on combined measurements of kynurenine uptake, S6 (S235/236) phosphorylation and cytokine production.

[7] = system: SLC7A11; assay: SLC7A11 mRNA expression in pDC (PrimeFlow RNA); type: cell-based, human; conditions: pDC in IL-3 and inhibitor o/n; for SLC7A11 and SLC7A5 mRNA expression (double positive cells): then CpG-A 5h (Figure 12B)
Protocol: as §1, §2

[8] = system: STAT5 (Y694); assay: STAT5 (Y694) phosphorylation in pDC by flow cytometry; type: cell-based, human; conditions: IL-3-induced; pDC with inhibitor o/n
Protocol: as §1, §3

[9] = system: mTORC1; assay: S6 (S235/236) phosphorylation in pDC by flow cytometry, as measure of mTORC1 activity; type: cell-based, human; conditions: pDC in IL-3 with inhibitor, stimulated with CpG-A; 20 nM RAP, 1µM AZD, BAR
Protocol: as §1, §3

[10] = system: SLC7A5 and SLC3A2; assay: SLC7A5 and SLC3A2 mRNA expression in pDC (PrimeFlow RNA); conditions: pDC in IL-3 and inhibitor o/n, then CpG-A 5h
[11] = pDC in IL-3, CpG-A and inhibitors for 5h after o/n rest (Figure 4E), 10µM HPA, 1 µM oligomycin
[12] = cultured pDC +/- IL-3, +/- CpG-A, 200 µM kynurenine 4 min, 10 mM BCH at time of uptake
[13] = pDC in IL-3 and inhibitor o/n, then CpG-A 5h, 20 nM RAP, 250 nM TOR, 10µM HPA, 1µM AZD, BAR, 5 µM ERA, 100 or 200 µM SAZ
[14] = pDC in IL-3 and inhibitor o/n, then CpG-A 5h, 20 nM RAP, 10µM HPA, 1µM AZD, BAR, 5 µM ERA, 100 or 200 µM SAZ

T1 sequence (Q01650 whole entry): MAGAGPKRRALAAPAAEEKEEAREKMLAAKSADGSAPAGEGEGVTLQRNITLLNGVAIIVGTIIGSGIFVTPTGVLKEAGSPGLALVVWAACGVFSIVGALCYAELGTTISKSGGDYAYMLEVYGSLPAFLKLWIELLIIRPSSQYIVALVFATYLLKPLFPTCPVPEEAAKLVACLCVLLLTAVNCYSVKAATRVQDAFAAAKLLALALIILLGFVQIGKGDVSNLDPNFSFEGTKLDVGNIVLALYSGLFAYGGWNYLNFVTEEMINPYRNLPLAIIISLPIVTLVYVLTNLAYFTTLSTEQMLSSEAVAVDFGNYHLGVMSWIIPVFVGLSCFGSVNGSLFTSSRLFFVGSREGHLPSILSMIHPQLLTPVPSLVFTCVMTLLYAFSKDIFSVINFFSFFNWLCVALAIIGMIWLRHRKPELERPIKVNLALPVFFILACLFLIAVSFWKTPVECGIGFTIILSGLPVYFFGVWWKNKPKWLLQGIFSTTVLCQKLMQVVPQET
T1 sequence (P08195 103-630 partner limits assumed): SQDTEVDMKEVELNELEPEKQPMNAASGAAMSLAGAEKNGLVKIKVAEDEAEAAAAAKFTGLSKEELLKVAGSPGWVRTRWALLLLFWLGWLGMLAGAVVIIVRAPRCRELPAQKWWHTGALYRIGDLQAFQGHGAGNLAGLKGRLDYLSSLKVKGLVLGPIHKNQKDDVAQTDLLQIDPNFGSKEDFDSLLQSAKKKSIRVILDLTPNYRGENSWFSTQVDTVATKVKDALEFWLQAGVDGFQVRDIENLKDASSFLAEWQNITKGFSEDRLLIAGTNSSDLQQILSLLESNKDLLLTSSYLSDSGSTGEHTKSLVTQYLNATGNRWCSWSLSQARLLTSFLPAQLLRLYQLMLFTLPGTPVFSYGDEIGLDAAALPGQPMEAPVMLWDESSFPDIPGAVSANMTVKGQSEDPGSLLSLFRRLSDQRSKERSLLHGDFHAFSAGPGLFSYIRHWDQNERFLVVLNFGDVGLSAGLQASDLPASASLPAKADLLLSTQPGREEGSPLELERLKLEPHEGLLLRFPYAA

With `CC[C@H]1/C=C/C=C/C[C@@H](C)[C@H](O)[C@@](C)(O)C(=O)[C@@H](C)[C@H](O)[C@@H](C)C(=O)[C@@H](C)[C@H](O)[C@@H](C)/C=C/C(=O)O[C@@H]2[C@H](C)[C@H](CC1)O[C@]1(CC[C@H](C)[C@H](C[C@@H](C)O)O1)[C@H]2C` [OLI, oligomycin] the IFNα production [1, 11] was “inhibited IFNα production to approximately the same extent as HPA” and the TNFα production [1, 11] was “no effect”.
In the case of `NC1(C(=O)O)CC2CCC1C2` (centres unmarked) [BCH, 2-Aminobicyclo[2.2.1]heptane-2-carboxylic acid], the kynurenine uptake [2, 12] is reported as “abrogated transport of kynurenine in all of the conditions” and the kynurenine uptake ([2]; pDC from healthy donors immediately ex vivo, 10 mM BCH) is reported as “blocked”.
In the case of `CC(C)[C@H]1CC[C@@]2(CO2)[C@H]2C(=O)OCC(C(=O)O)=C[C@H]12` [HPA, heptelidic (koningic) acid], the “protein synthesis measured by incorporation of puromycin analogue (OPP)” value [3] is reported as “caused reductions in overall protein synthesis”, the “lactate levels in medium” value [4] is reported as “reduced secreted lactate levels to below those in cultures of unstimulated pDC” and the IFNα production [1, 13] is reported as “reductions”. The TNFα production [1, 14] was “reductions”.
`CCOc1ccccc1-n1c(C(C)N2CCN(C(=O)COc3ccc(Cl)cc3)CC2)nc2ccccc2c1=O` (centres unmarked) [ERA, erastin] was tested, and the “live cells (cell death)” value [5] was “absence of appreciable cell death”.
In the case of `CCS(=O)(=O)N1CC(CC#N)(n2cc(-c3ncnc4[nH]ccc34)cn2)C1` [BAR, baricitinib], the “live cells (cell death / cell survival)” value ([5]; BAR 25 to 100 nM, alone or with SAZ, IL-3 o/n, then CpG-A 5h (Figure 14C)) is reported as “increased cell death”.
With `O=C(O)c1cc(/N=N/c2ccc(S(=O)(=O)Nc3ccccn3)cc2)ccc1O` [Sulfasalazine, sulfasalazine] the “kynurenine uptake and pS6 (S235/236) expression (cells positive for both)” value ([6]; pDC in IL-3 and inhibitor o/n, then CpG-A 5h) was “reductions”, the IFNα production [1, 13] was “inhibited” and the TNFα production [1, 14] was “inhibited”.
`CCC(=O)N1CCN(c2ccc(-n3c(=O)ccc4cnc5ccc(-c6cnc7ccccc7c6)cc5c43)cc2C(F)(F)F)CC1` [TOR, torin1] was tested, and the “lactate levels in medium” value [4] was “decline in CpG-A-induced lactate release”, the “SLC7A11 mRNA expression” value ([7]; then CpG-A 5h) was “inhibited” and the “SLC7A11 and SLC7A5 mRNA expression (double positive cells)” value [7] was “similar, although less pronounced effect”. For the same compound, the IFNα production [1, 13] was “similar, although less pronounced effect”.
With `Cc1cc(Nc2nc(N[C@@H](C)c3ncc(F)cn3)ncc2Cl)n[nH]1` [AZD, AZD1480] the “pSTAT5 (Y694) expression” value [8] was “inhibited”, the “pS6 (S235/236) expression” value [9] was “reductions” and the “kynurenine uptake and pS6 (S235/236) expression (cells with high rates of kynurenine uptake and mTORC1 activity)” value ([6]; pDC in GM-CSF and inhibitor o/n, then CpG-A 5h (Figure 8)) was “inhibited”. For the same compound, the “SLC7A5 and SLC3A2 mRNA expression” value [10] was “significantly inhibited”, the kynurenine uptake [2, 12] was “reductions” and the “SLC7A11 and SLC7A5 mRNA expression (double positive cells)” value [7] was “lost expression of both transporters”. The IFNα production [1, 13] was “lost and decrease”, the TNFα production [1, 14] was “decrease” and the IFNα production ([1]; pDC maintained in GM-CSF and inhibitor o/n, then CpG-A 5h (Figure 8)) was “inhibited”.
